Results: US9932300B2, “N,N′-diarylurea compounds and N,N′-diarylthiourea compounds as inhibitors of translation initiation” (President and Fellows of Harvard College, priority 2009, dated 2018)

Tested on: eIF2-GTP-Met-tRNAi ternary complex
Assay: Ternary complex assay (dual luciferase, firefly/renilla ratio) in stable KLN-tTA/pBISA-DL(ATF-4) cells; HTS and hit confirmation
Format: cell-based, mouse
Parameters: Activity 10 uM / Activity 2.5 uM / Activity 5 uM: unit not given here
Conditions: confirmed hits of the screen (Table 5); for Activity 2.5 uM: compound at 2.5 uM; for Activity 10 uM: compound at 10 uM; for Activity 5 uM: compound at 5 uM

| Compound | Activity 2.5 uM | Activity 10 uM | Activity 5 uM |
| --- | --- | --- | --- |
| Oc1c(Cl)cc(Cl)cc1C1N(Cc2ccc(N(CCCl)CCCl)cc2)CCCN1Cc1ccc(N(CCCl)CCCl)cc1 [Compound 99639] | 0.7 | 8.32 |  |
| CCCCCCCCCCCCCCCCCC[N+](C)(C)C.O=S(=O)([O-])c1ccccc1 [Compound 74568] |  | 4.8 | 2.1 |
| CCCCCCNc1nc(N2CCOCC2)c2[nH]c(NCCCCCC)nc2n1 [Compound 401304] | 1.04 | 43.11 |  |
| Clc1ccc(/C=N\N2CCCCCC2)cc1 [Compound 82278] |  | 3.1525 | 3.288 |
| COC1OC(CI)C(OC(=O)c2ccccc2)C(OC(=O)c2ccccc2)C1OC(=O)c1ccccc1 (centres unmarked) [Compound 403488] | 1.55 | 4.41 |  |
| Clc1nn2nnnc2c2ccccc12 [Compound 179944] | 0.54 | 6.1 |  |
| Cc1ccc(-c2cc(-c3ccccc3)[s+]c3ccc(C)cc23)cc1 [Compound 55867] |  | 3.2 | 1.1 |
| Oc1ccccc1[N]1CCNc2ccccc2[O][Sn]1([c]1ccccc1)[c]1ccccc1 [Compound 628578] | 3.53 |  |  |
| C[C@]12CC[C@H]3[C@@H](CCC4=CC(=O)CC[C@@H]43)[C@@H]1CC[C@@]2(O)C#CC#C[C@]1(O)CC[C@H]2[C@@H]3CCC4=CC(=O)CC[C@@H]4[C@H]3CC[C@@]21C [Compound 59465] |  | 6.8 | 1.8 |
| N#Cc1nc2c3ccccc3c(N=NC(=N)N[N+](=O)[O-])c-2[nH]c1C#N [Compound 186256] |  | 3.71 | 3.212 |
| CC[CH2][Pb]([CH2]CC)([CH2]CC)[O]C(C)=O [Compound 102516] |  | 3.4 |  |
| FC(F)(Sc1ccccn1)c1nc2ccccc2o1 [Compound 691256] |  | 5.7865 | 4.563 |
| c1ccc(-c2ccc(N=NN3CCCC3)cc2)cc1 [Compound 687753] |  | 6.931 | 4.922 |
| Clc1ccc(-c2ncc(-c3ccccc3)o2)c(Cl)c1 [Compound 90467] | 2.6 | 3.88 |  |
| CN1C/C(=C\c2ccccc2)C(=O)/C(=C/c2ccccc2)C1.Cl [Compound 618767] | 0.7 | 6.58 |  |
| O=Cc1c(-c2ccccc2)nc2sc(-c3ccc4c(c3)OCO4)nn12 [Compound 602807] | 2.08 | 3.12 |  |
| CN(C)c1ccc(C(O)Cc2ccc3ccccc3n2)cc1 (centres unmarked) [Compound 240576] |  | 6.2885 | 5.47 |
| CN(C)c1ccc(/C=N/Nc2ccccc2)cc1 [Compound 230415] |  | 3.3005 | 2.468 |
| CCCCCCCCCCCCOC(=O)c1cc(O)c(O)c(O)c1 [Compound 133463] |  | 4.63 | 8.8 |
| C=C1CC2(OC1=O)C(=O)N(C)c1ccccc12 (centres unmarked) [Compound 194807] | 1.72 | 3.45 |  |
| c1ccc(N=Nc2ccc[nH]2)cc1 [Compound 115157] |  | 40.7 | 7.1 |
| CCN(CC)c1ccc(C(O)C2=CC(=O)c3ccccc3C2=O)cc1 (centres unmarked) [Compound 58338] |  | 17.599 | 11.604 |

| Compound | Activity 2.5 uM | Activity 10 uM | Activity 5 uM |
| --- | --- | --- | --- |
| Cc1ccc(N=Nc2ccc(N(C)C)cc2)cc1 [Compound 204514] | 3.6 | 4.66 |  |
| CC(=O)Oc1ccccc1/C=C/NC(=O)OC(C)(C)C [Compound 122241] |  | 5 | 3.2 |
| CCCCCCCCCCCCCCC[N+](C)(C)C.[Cl-] [Compound 155015] | 2.19 | 3.73 |  |
| CCCCCCCCCCCCCCCC[N+](C)(C)CCOC(C)=O.O=S(=O)([O-])C(F)(F)F [Compound 297153] | 0.95 | 4.39 |  |
| Nc1cccc2scnc12 [Compound 170680] |  | 6.8 | 2.7 |
| CCCCCCCCCCCCCCCC[N+]1(CCCCCCCCCC)CC2CCCCC2C1.[I-] (centres unmarked) [Compound 55240] |  | 5.2 | 4.2 |
| c1ccc(-c2ccc(-c3cnc(-c4ccc(-c5ccccc5)cc4)o3)cc2)cc1 [Compound 24863] | 1.87 | 3.22 |  |
| CC1=C(Br)C(=O)C(c2c(C)cc(C)c(Br)c2C)=C(Br)C1=O [Compound 159569] |  | 5.804 | 3.21 |
| CN(C)c1ccc(NC(=O)c2ccccc2O)cc1 [Compound 328479] |  | 7.342 | 7.502 |
| Cc1cnccc1N=Nc1ccc(N(C)C)cc1 [Compound 170639] | 3.93 | 5.38 |  |
| F[C-](F)C(F)(F)C(F)(F)C(F)(F)C(F)(F)C(F)(F)C(F)(F)F.[CH]1[CH][CH][CH][CH]1.[Co+][I].c1ccc(P(CCP(c2ccccc2)c2ccccc2)c2ccccc2)cc1 [Compound 633992] | 13.09 |  |  |
| O=C1C(Cl)=C(Cl)C(=O)N1c1cccc2c(N3C(=O)C(Cl)=C(Cl)C3=O)cccc12 [Compound 69580] |  | 6.4 | 3.5 |
| C(=C(\C[P+](c1ccccc1)(c1ccccc1)c1ccccc1)c1ccccc1)/c1ccccc1 [Compound 167334] |  | 12.373 | 11.387 |
| Br.CCCCCCCCCCCCCCCC[N+](C)(C)CCN.[Br-] [Compound 297156] | 1.08 | 5.15 |  |
| CC(/C=C/c1cccc(C)c1)=N\NC(N)=O [Compound 366583] |  | 3.134 | 2.409 |
| CN(C)c1cc(=O)c2c(ccc3ccccc32)o1 [Compound 292795] |  | 4.66 | 3.69 |
| C/C(=N\N=C(/C)c1ccc(F)cc1)c1ccc(F)cc1 [Compound 202060] |  | 5.049 | 3.63 |
| O=C(Nc1nc2ccc(Cl)cc2[nH]1)c1ccccc1O [Compound 369110] | 1.84 | 6.46 |  |
| CCN(CC)c1ccc(/C=C2\C=Cc3ccccc32)cc1 [Compound 83089] |  | 5.1265 | 10.155 |
| Cc1ccc(N=P2(Nc3ccc(C)cc3)N=P(Nc3ccc(C)cc3)(N3CC3)NP(=Nc3ccc(C)cc3)(N3CC3)N2)cc1 (centres unmarked) [Compound 67112] |  | 16.3 | 3.1 |
| O=[N+]([O-])c1ccc(N=Nc2c(Cl)cc(O)cc2Cl)cc1 [Compound 83318] |  | 14.6225 | 12.03 |
| O=C1C=CC(=O)N1c1ccc2c(c1)Cc1cc(NC(=O)C(F)(F)F)ccc1-2 [Compound 408383] | 0.84 | 10.77 |  |

| Compound | Activity 2.5 uM | Activity 10 uM | Activity 5 uM |
| --- | --- | --- | --- |
| O=C1C=C(N2CC2)C(=O)C(N2CC2)=C1N1CC1 [Compound 29215] | 36.4 |  |  |
| Oc1ccc2ccccc2c1/C=N/Nc1ccc2ccccc2n1 [Compound 168465] |  | 6 | 2.2 |
| CN(C)c1ccc(N=Nc2ccc(Cl)c(Cl)c2)cc1 [Compound 170589] | 3.81 | 6.57 |  |
| CCCCc1ccc2nc3cc4ccccc4cc3nc2c1 [Compound 100622] | 2.25 | 3.12 |  |
| COc1ccccc1NC(=S)N/N=C(/C)c1ccccn1 [Compound 668297] | 10.51 | 37.53 |  |
| NNc1nc2ccc([N+](=O)[O-])cc2s1 [Compound 158091] | 1.66 | 4.83 |  |
| Cc1ccc([As]=[As]c2ccc(C)cc2N)c(N)c1.Cl (centres unmarked) [Compound 402866] | 1.66 | 26.02 |  |
| O=C(Nc1ccc(Br)cc1)OCC1CC2C=CC1C2 (centres unmarked) [Compound 205545] | 2.41 | 4.54 |  |
| O=C(Nc1ccc(CCO)cc1)Nc1ccccc1F [Compound 214004] |  | 6.0655 | 5.299 |
| CC(C)(C)CC(C)(C)c1ccc(OCCOc2ccc(C(=O)Nc3ccc([N+](=O)[O-])cc3)cc2)cc1 [Compound 151119] | 0.72 | 6.62 |  |
| N#Cc1nc2c3ccccc3c(N=NC(N)=S)c-2[nH]c1C#N [Compound 186257] |  | 59.966 | 49.982 |
| CC(C)[S-].CC(C)[S-].[Pt+2].c1ccc([PH+](c2ccccc2)c2ccccc2)cc1.c1ccc([PH+](c2ccccc2)c2ccccc2)cc1 [Compound 300559] | 0.71 | 4.71 |  |
| CCC[CH2][Sn]([Cl])([CH2]CCC)[S]/C(C#N)=N/N=C/c1ccc(N(C)C)cc1 [Compound 620296] | 5.24 | 3.13 |  |
| CCCCCCCC(=O)[O][Hg][c]1ccccc1 [Compound 122854] |  | 3.2 |  |
| O=c1c([Se]c2coc3ccccc3c2=O)coc2ccccc12 [Compound 652531] | 0.71 | 12.9 |  |
| CCc1ccc(N=Nc2ccc(Br)cc2)cc1 [Compound 106378] | 2.55 | 3.69 |  |
| CCC[CH2][Sn]1([CH2]CCC)[O]c2ccccc2NCC[N]1c1ccccc1O [Compound 628577] | 1.45 | 3.06 |  |
| COc1ccc(/C=N/Nc2nc3ccccc3c(=O)n2-c2ccccc2)cc1 [Compound 666356] | 2.43 | 30.26 |  |
| CCN1/C(=C/C=C2\CCC(/C=C/c3sc4ccc(Cl)cc4[n+]3CC)=C2N(c2ccccc2)c2ccccc2)Sc2ccc(Cl)cc21.[O-][Cl+3]([O-])([O-])[O-] [Compound 290436] |  | 20.4 | 3.8 |
| CCCCCCCCCCCCCCCC[N+]1(C)CC2CCCCC2C1 (centres unmarked) [Compound 55237] |  | 6.6 | 3.4 |
| O=S(=O)(c1ccccc1)N1CC2CC(Br)C(Br)CC21 (centres unmarked) [Compound 135331] |  | 31.606 | 15.388 |
